Target: T1, recombinantly expressed human sodium-dependent ileal bile acid transporter (IBAT) (Homo sapiens, UniProt Q12908)
T1 construct: Bases 599 to 1645 correspond to the complete coding region of the human IBAT; expressed in transfected cells
T1 sequence (Q12908 1-348): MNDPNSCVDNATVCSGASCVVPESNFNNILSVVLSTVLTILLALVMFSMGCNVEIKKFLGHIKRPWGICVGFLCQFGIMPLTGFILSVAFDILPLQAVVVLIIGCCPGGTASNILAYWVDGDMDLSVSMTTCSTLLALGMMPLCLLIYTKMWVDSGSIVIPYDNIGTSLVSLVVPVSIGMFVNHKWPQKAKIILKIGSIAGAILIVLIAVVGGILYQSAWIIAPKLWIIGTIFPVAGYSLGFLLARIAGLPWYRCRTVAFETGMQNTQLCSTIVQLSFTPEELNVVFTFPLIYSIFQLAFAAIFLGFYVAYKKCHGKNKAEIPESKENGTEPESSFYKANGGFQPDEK
Experiment: in vitro IBAT inhibition test ([3H]-taurocholic acid uptake into CHO-hIBAT cells)
Type: cell-based
Details: for IC50: CHO-hIBAT cells, taurocholic acid 10 μM, 60 min at room temperature
Method: Biological testing of the compound A according to the invention was carried out using the in vitro IBAT inhibition test. This test examines the effect of the compound according to the invention on the transport activity of the recombinantly expressed human sodium-dependent ileal bile acid transporter (IBAT=ileal Na^+/bile acid contransporter, ASBT=apical sodium-dependent bile acid transporter, SLC10A2=solute carrier family 10, member 2).
The cDNA (complementary deoxyribonucleic acid) of human IBAT was cloned using standard methods of molecular biology as described, for example, in Molecular Cloning: A Laboratory Manual, by Joseph Sambrook and David Russell, and introduced into the pcDNA1 vector from Invitrogen. […] Bases 599 to 1645 correspond to the complete coding region of the human IBAT.
The expression vector for the human IBAT was introduced by means of stable transfection into CHO (Chinese hamster ovary) cells. To select single cell clones, 400 μg/ml of geneticin was added to the cell culture medium (Ham's F12 medium supplemented with 10% fetal calf serum, 100 units/ml of penicillin, 100 units/ml of streptomycin). The functionality of the single cell clones resulting from the selection was tested via their uptake activity for radioactively labeled taurocholic acid ([^3H]-TCA). […]
CHO-hIBAT cells were sown at a concentration of 40 000 cells per well in cell culture medium in poly-D-lysine-coated 96-well plates and cultivated for 24 h. […] Finally, 100 μl of scintillation fluid were added to each well, and the radioactivity taken up into the cells was determined in a MicroBeta scintillation microplate reader from Wallac.
The half-maximal inhibitory effect of the test compound (IC50 value, inhibitory concentration 50) was determined as follows:
1. […] This is the value measured in the absence of substance, measured in sodium-comprising transport assay buffer.
2. […] This is the value measured in the absence of substance, measured in sodium-free transport assay buffer. […]

IC50 [nM] | activity compared to comparative example from EP 1 169 313 (higher) (relative to compound 11a of EP 1 169 313, from IC50 (human IBAT)) [%] | SMILES
155 | 206 | CCCCC1(CCCC)CS(=O)(=O)c2ccc(N(C)C)cc2[C@@H](c2cccc(NC(=O)NC[C@H](O)[C@@H](O)[C@H](O)[C@H](O)CO)c2)N1 [Example A]
319 |  | CCCCC1(CCCC)CS(=O)(=O)c2ccc(N(C)C)cc2[C@@H](c2cccc(NC(=O)[C@H](O)[C@@H](O)[C@H](O)[C@H](O)CO)c2)N1 [compound 11a, reference compound]

Source: patent US20080207592A1, “Novel 1,4-benzothiazepine-1,1-dioxide derivative having improved properties, method for the production thereof, medicaments containing said compound, and use thereof” (SANOFI-AVENTIS DEUTSCHLAND GMBH, priority 2005, published 2008)
